Experimental data taken from US11369565B2, “Amino-pyrimidine skeletal muscle modulators” (Cytokinetics, Inc., priority 2010, dated 2022).

Test system: rabbit skeletal myofibrils (approximately 90% fast fibers)
Assay: Activation of fast skeletal myofibrils (PUMA coupled-enzyme ATPase assay at pCa25)
Assay type: biochemical
Details: concentration at which the compound increased the enzymatic activity by 40%; calcium at pCa25; PM12 buffer pH 6.8
Method in brief: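 In pH 6.8 PM12 buffer (12 mM Pipes, 2 mM MgCl2, 1 mM DTT), ADP from myosin regenerated via pyruvate kinase/lactate dehydrogenase, with absorbance change at 340 nm from NADH oxidation as read-out. Calcium set at pCa25; Triton-washed rabbit skeletal myofibrils (about 90% fast fibres) used.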

NC(=O)c1ccc2nc(NC3(c4ncccc4F)CCC3)ncc2c1 [2-{[(3-fluoro-2-pyridyl)cyclobutyl]amino} quinazoline-6-carboxamide]
Mean AC1.4: D (D=>20 uM)

NC(=O)c1cnc(NC2(c3ncccc3F)CCC2)nc1 [2-{[(3-fluoro-2-pyridyl)cyclobutyl]amino}pyrimidine-5-carboxamide]
Mean AC1.4: D (D=>20 uM)

N#Cc1ccc2nc(NC3(c4ncccc4F)CCC3)ncc2c1 [2-{[(3-fluoro-2-pyridyl)cyclobutyl]amino}quinazoline-6-carbonitrile]
Mean AC1.4: D (D=>20 uM)

N#Cc1ccnc(NC2(c3ccc(F)cc3)CCC2)n1 [2-{[(4-fluorophenyl)cyclobutyl]amino} pyrimidine-4-carbonitrile]
Mean AC1.4: D (D=>20 uM)

NC(=O)c1ccnc(NC2(c3ccc(F)cc3)CCC2)n1 [2-{[(4-fluorophenyl)cyclobutyl]amino} pyrimidine-4-carboxamide]
Mean AC1.4: C (C=10-20 uM)

N#Cc1cnc(NC2(c3ccc(F)cc3)CCC2)nc1 [2-{[(4-fluorophenyl)cyclobutyl]amino} pyrimidine-5-carbonitrile]
Mean AC1.4: C (C=10-20 uM)

NC(=O)c1cnc(NC2(c3ccc(F)cc3)CCC2)nc1 [2-{[(4-fluorophenyl)cyclobutyl]amino} pyrimidine-5-carboxamide]
Mean AC1.4: D (D=>20 uM)

NC(=O)c1cnc(NC2(c3ccc(F)cc3)CCC2)nc1C(F)(F)F [2-{[(4-fluorophenyl)cyclobutyl]amino}-4-(trifluoromethyl)pyrimidine-5-carboxamide]
Mean AC1.4: B (B=1-10 uM)

O=C(O)c1cnc(NC2(c3ccc(F)cc3)CCC2)nc1C(F)(F)F [2-{[(4-fluorophenyl)cyclobutyl]amino}-4-(trifluoromethyl)pyrimidine-5-carboxylic acid]
Mean AC1.4: D (D=>20 uM)

C[S+]([O-])c1ccccc1C(C)(C)Nc1ncc(-c2cccc(C(N)=O)c2)cn1 (stereo not drawn) [3-(2-(2-(2-(methylsulfinyl)phenyl)propan-2-ylamino)pyrimidin-5-yl)benzamide]
Mean AC1.4: D (D=>20 uM)

C[S+]([O-])c1cccnc1C(C)(C)Nc1ncc(-c2cccc(C(N)=O)c2)cn1 (stereo not drawn) [3-(2-(2-(3-(methylsulfinyl)pyridin-2-yl)propan-2-ylamino)pyrimidin-5-yl)benzamide]
Mean AC1.4: D (D=>20 uM)

C[S+]([O-])c1ccc(C(C)(C)Nc2ncc(-c3cccc(C(N)=O)c3)cn2)cc1 (stereo not drawn) [3-(2-(2-(4-(methylsulfinyl)phenyl)propan-2-ylamino)pyrimidin-5-yl)benzamide]
Mean AC1.4: D (D=>20 uM)

NC(=O)c1cccc(-c2cnc(N)nc2)c1 [3-(2-aminopyrimidin-5-yl)benzamide]
Mean AC1.4: D (D=>20 uM)

CC(C)(Nc1ncc(-c2cc(C(N)=O)ccc2F)cn1)c1cccnc1Cl [3-(2-{[1-(2-chloro(3-pyridyl))-isopropyl]amino}pyrimidin-5-yl)-4-fluorobenzamide]
Mean AC1.4: B (B=1-10 uM)

NC(=O)c1ccc(F)c(-c2cnc(N[C@]3(c4ncccc4Cl)C[C@H](F)C3)nc2)c1 [3-(2-{[1-(3-chloro(2-pyridyl))-3-fluorocyclobutyl]amino}pyrimidin-5-yl)-4-fluorobenzamide]
Mean AC1.4: A (A=<1 uM)

CC(C)(Nc1ncc(-c2noc(C(N)=O)n2)cn1)c1ncccc1Cl [3-(2-{[1-(3-chloro(2-pyridyl))-isopropyl]amino}pyrimidin-5-yl)-1,2,4-oxadiazole-5-carboxamide]
Mean AC1.4: D (D=>20 uM)

Cn1nc(-c2cnc(NC(C)(C)c3ncccc3Cl)nc2)cc1C(N)=O [3-(2-{[1-(3-chloro(2-pyridyl))-isopropyl]amino}pyrimidin-5-yl)-1-methylpyrazole-5-carboxamide]
Mean AC1.4: D (D=>20 uM)

CC(C)(Nc1ncc(-c2cc(C(N)=O)ccc2F)cn1)c1ncccc1Cl [3-(2-{[1-(3-chloro(2-pyridyl))-isopropyl]amino}pyrimidin-5-yl)-4-fluorobenzamide]
Mean AC1.4: A (A=<1 uM)

CC(C)(Nc1ncc(-c2cccc(C(N)=O)c2)cn1)c1ncccc1Cl [3-(2-{[1-(3-chloro(2-pyridyl))-isopropyl]amino}pyrimidin-5-yl)benzamide]
Mean AC1.4: A (A=<1 uM)

CC(C)(Nc1ncc(-c2cc(C(N)=O)on2)cn1)c1ncccc1Cl [3-(2-{[1-(3-chloro(2-pyridyl))-isopropyl]amino}pyrimidin-5-yl)isoxazole-5-carboxamide]
Mean AC1.4: C (C=10-20 uM)

COc1ccc(Cl)c(C(C)(C)Nc2ncc(-c3cccc(C(N)=O)c3)cn2)n1 [3-(2-{[1-(3-chloro-6-methoxy(2-pyridyl))-isopropyl]amino}pyrimidin-5-yl)benzamide]
Mean AC1.4: A (A=<1 uM)

CC(C)(Nc1ncc(-c2cccc(C(N)=O)c2)cn1)c1ncccc1F [3-(2-{[1-(3-fluoro(2-pyridyl))-isopropyl]amino}pyrimidin-5-yl)benzamide]
Mean AC1.4: B (B=1-10 uM)

CSc1ccccc1C(C)(C)Nc1ncc(-c2cccc(C(N)=O)c2)cn1 [3-(2-{[1-methyl-1-(2-methylthiophenyl)ethyl]amino}pyrimidin-5-yl)benzamide]
Mean AC1.4: A (A=<1 uM)

CSc1ccccc1C(C)(C)Nc1ncc(-c2cccc(C#N)c2)cn1 [3-(2-{[1-methyl-1-(2-methylthiophenyl)ethyl]amino}pyrimidin-5-yl)benzenecarbonitrile]
Mean AC1.4: A (A=<1 uM)

CSc1cccnc1C(C)(C)Nc1ncc(-c2cccc(C(N)=O)c2)cn1 [3-(2-{[1-methyl-1-(3-methylthio(2-pyridyl))ethyl]amino}pyrimidin-5-yl)benzamide]
Mean AC1.4: B (B=1-10 uM)

CSc1cccnc1C(C)(C)Nc1ncc(-c2cccc(C#N)c2)cn1 [3-(2-{[1-methyl-1-(3-methylthio(2-pyridyl))ethyl]amino}pyrimidin-5-yl)benzenecarbonitrile]
Mean AC1.4: B (B=1-10 uM)

CSc1ccc(C(C)(C)Nc2ncc(-c3cccc(C#N)c3)cn2)cc1 [3-(2-{[1-methyl-1-(4-methylthiophenyl)ethyl]amino}pyrimidin-5-yl)benzenecarbonitrile]
Mean AC1.4: D (D=>20 uM)

CC(C)(CNc1ncc(-c2cc(C(N)=O)ccc2F)cn1)c1ncccc1Cl [3-(2-{[2-(3-chloro(2-pyridyl))-2-methylpropyl]amino}pyrimidin-5-yl)-4-fluorobenzamide]
Mean AC1.4: A (A=<1 uM)

CC(C)(CNc1ncc(-c2cccc(C(N)=O)c2)cn1)c1ncccc1Cl [3-(2-{[2-(3-chloro(2-pyridyl))-2-methylpropyl]amino}pyrimidin-5-yl)benzamide]
Mean AC1.4: A (A=<1 uM)

CC(C)(CNc1ncc(-c2cccc(C(N)=O)c2)cn1)c1ncccc1F [3-(2-{[2-(3-fluoro(2-pyridyl))-2-methylpropyl]amino}pyrimidin-5-yl)benzamide]
Mean AC1.4: B (B=1-10 uM)

CC(C)(CNc1ncc(-c2cccc(C(N)=O)c2)cn1)c1ccc(F)cc1 [3-(2-{[2-(4-fluorophenyl)-2-methylpropyl]amino}pyrimidin-5-yl)benzamide]
Mean AC1.4: A (A=<1 uM)

NC(=O)c1cccc(-c2cnc(NCC3(c4ccccn4)CCC3)nc2)c1 [3-(2-{[(2 pyridylcyclobutyl)methyl]amino}pyrimidin-5-yl)benzamide]
Mean AC1.4: B (B=1-10 uM)

CC(C)(Nc1ncc(-c2cc(C(N)=O)ccc2F)cn1)c1ncccc1C(F)F [3-[2-({1-[3-(difluoromethyl)(2-pyridyl)]-isopropyl)amino)pyrimidin-5-yl]-4-fluorobenzamide]
Mean AC1.4: B (B=1-10 uM)
